Read-outs that look alike come from different tables or passages of the source.
Experiments:
[1] = test system: neuronal PC12 cells and sympathetic neurons; conditions: two model systems of neuronal survival; Park et al. 1996; cited from earlier work
[2] = test system: PC12 cells, or rat sympathetic neurons; conditions: cited from earlier work; for concentration giving maximal protection from death: camptothecin-treated, minimum concentrations that fully inhibit DNA synthesis by proliferating PC12 cells; for cell death: day 6, in the presence or absence of camptothecin
cortical neurons = conditions: cited from earlier work; for IC50: Park et al. 1997, read-out: IC50, protection against camptothecin-induced cortical neuronal death
MCF-7 = experiment: In vitro tumor cell proliferation, MCF-7; format: cell-based, human; conditions: Homo sapiens, MCF7, MCF-7; sulforhodamine B or CyQUANT assay; read-out: In vitro Tumor Cell Proliferation (IC50, μM) Breast MCF-7
Experimental: (§1) The proliferation of tumor cells was measured using a sulforhodamine B assay as described in Skehan, P., et al., J. Natl. Cancer Inst. […] Tumor cells were harvested with trypsin-EDTA, cells that excluded trypan blue were counted, added to 96-well plates and incubated overnight at 37° C. Drug was added to the wells following dilution in culture medium. Three days later, the medium was removed and replenished with medium containing fresh drug and incubated an additional 4 days. The cells were then fixed with 0.1 ml 10% trichloroacetic acid for 60 min at 4° C. The plates were rinsed five times with tap water, air-dried and stained for 30 min with 0.4% sulforhodamine B in 1% acetic acid and air-dried.
(§2) Alternatively, the CyQUANT cell proliferation assay was used to quantitate cell proliferation.
(§3) Alternatively, the CyQUANT cell proliferation assay was used to quantify tumor cell proliferation. Tumor cells were harvested with trypsin-EDTA, cells that excluded trypan blue were counted, added to 96-well plates and incubated overnight at 37° C. Drug was added to the wells following dilution in culture medium. Three days later the medium was removed and the plates frozen at −80° C. for at least 30 minutes.
MCF7 is a human breast adenocarcinoma, hormone-dependent (HTB 22);

HT-29 = experiment: In vitro tumor cell proliferation, HT-29; format: cell-based, human; conditions: many values given with an undefined *, read-out: In vitro Tumor Cell Proliferation (IC50, μM) Colon HT-29
Procedure, shortened: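 Growth was quantified either with CyQUANT, plates frozen at −80° C after 3 days of drug, or by sulforhodamine B staining of TCA-fixed cells after 3 days of drug plus 4 days with fresh drug. Trypan blue-excluding HT-29 cells were plated overnight at 37° C before dosing.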

HCT-15 = experiment: In vitro tumor cell proliferation, HCT-15; format: cell-based, human; conditions: read-out: In vitro Tumor Cell Proliferation (IC50, μM) Colon HCT-15
Experimental: as §1, §2, §3

A549 = experiment: In vitro tumor cell proliferation, A549; format: cell-based, human; conditions: Homo sapiens; A549; many values given with an undefined *; read-out: In vitro Tumor Cell Proliferation (IC50, μM) Lung A549
Procedure, shortened: (§4)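 Cells seeded overnight at 37° C, then exposed to drug diluted in medium; at 3 days medium and drug replenished for another 4 days. Growth read by sulforhodamine B staining after TCA fixation; alternatively by CyQUANT, with plates frozen at −80° C after 3 days of drug.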

DMS-114 = experiment: In vitro tumor cell proliferation, DMS-114; format: cell-based, human; conditions: many values given with an undefined *, read-out: In vitro Tumor Cell Proliferation (IC50, μM) Lung DMS-114
Procedure, shortened: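 Human small cell lung carcinoma DMS-114 cells plated overnight, then drug-treated for 3 days, medium and drug renewed, and incubated 4 more days. Growth read by sulforhodamine B staining after TCA fixation; alternatively by CyQUANT after 3 days' drug exposure and freezing at −80 °C.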

PC-3 = experiment: In vitro tumor cell proliferation, PC-3; format: cell-based, human; conditions: Homo sapiens; PC-3; many values given with an undefined *; read-out: In vitro Tumor Cell Proliferation (IC50, μM) Prostate PC-3
Procedure, shortened: as §4

DU145 = experiment: In vitro tumor cell proliferation, DU145; format: cell-based, human; conditions: Homo sapiens, DU-145, DU145; many values given with an undefined *; read-out: In vitro Tumor Cell Proliferation (IC50, μM) Prostate DU145
Procedure, shortened: as §4

[3] = test system: CDK-cyclin protein kinases; conditions: Vesely et al. 1994; cited from earlier work
[4] = test system: cAMP- and cGMP-dependent kinases, and protein kinase C; conditions: cited from earlier work

Compound | effect on death of neuronal PC12 cells and sympathetic neurons [1] | concentration giving maximal protection from death [2] | cell death [2] | IC50 (cortical neurons) | IC50 (MCF-7) | IC50 (HT-29; HT-29) | IC50 (HT-29; Homo sapiens, HT-29, HT-29) | IC50 (HCT-15; HCT-15) | IC50 (HCT-15; Homo sapiens, HCT-15, HCT-15) | IC50 (A549) | IC50 (DMS-114; DMS-114) | IC50 (DMS-114; Homo sapiens, DMS-114, DMS-114) | IC50 (PC-3) | IC50 (DU145) | IC50 [3] | effect on other major protein kinases [4] | prevention of cell death of camptothecin-treated neuronal cells ([2]; PC12 cells / sympathetic neurons) | prevention of cell death of camptothecin-treated neuronal cells (cortical neurons; cortical neurons)
CN1CC[C@H](c2c(O)cc(O)c3c(=O)cc(-c4ccccc4Cl)oc23)[C@H](O)C1 [Flavopiridol] | suppress the death | 1 µM | approximately 30% | 0.1 µM | – | – | – | – | – | – | – | – | – | – | – | – | – | –
Cn1cnc2c(NCc3ccccc3)nc(NCCO)nc21 [Olomoucine, 6-(benzylamino)-2-[(2-hydroxyethyl)amino]-9-methylpurine, reference compound] | suppress the death | 200 µM | approximately 30% | 100 µM | 35 µM | 58 µM | 53 µM | 63 µM | 62 µM | 69 µM | 76 µM | 50 µM | 55 µM | > 100 µM | ~7 µM | no effect | – | –
Cn1cnc2nc(NCCO)nc(NCc3ccccc3)c21 [iso-olomoucine] | – | – | – | – | – | – | – | – | – | – | – | – | – | – | – | – | failed to prevent the cell death | failed to prevent the cell death

— US6479487B1, “6, 9-disubstituted 2-[trans-(4-aminocyclohexyl)amino] purines” (Aventis Pharmaceuticals Inc., priority 1998, dated 2002)
